Results from paper PMC12426935, “On-Cell Saturation Transfer Difference NMR Spectroscopy on Ion Channels: Characterizing Negative Allosteric Modulator Binding Interactions of P2X7” (Journal of the American Chemical Society, 2025).
Like-named read-outs stand apart in the source and are kept apart here.

Tests used:
[1] = target: T1, human P2X7 (WT hP2X7) (Homo sapiens, UniProt Q99572); assay: fura-2 intracellular calcium assay on HEK-293 stable cell line expressing human P2X7; assay type: cell-based
T1 sequence (Q99572 1-595): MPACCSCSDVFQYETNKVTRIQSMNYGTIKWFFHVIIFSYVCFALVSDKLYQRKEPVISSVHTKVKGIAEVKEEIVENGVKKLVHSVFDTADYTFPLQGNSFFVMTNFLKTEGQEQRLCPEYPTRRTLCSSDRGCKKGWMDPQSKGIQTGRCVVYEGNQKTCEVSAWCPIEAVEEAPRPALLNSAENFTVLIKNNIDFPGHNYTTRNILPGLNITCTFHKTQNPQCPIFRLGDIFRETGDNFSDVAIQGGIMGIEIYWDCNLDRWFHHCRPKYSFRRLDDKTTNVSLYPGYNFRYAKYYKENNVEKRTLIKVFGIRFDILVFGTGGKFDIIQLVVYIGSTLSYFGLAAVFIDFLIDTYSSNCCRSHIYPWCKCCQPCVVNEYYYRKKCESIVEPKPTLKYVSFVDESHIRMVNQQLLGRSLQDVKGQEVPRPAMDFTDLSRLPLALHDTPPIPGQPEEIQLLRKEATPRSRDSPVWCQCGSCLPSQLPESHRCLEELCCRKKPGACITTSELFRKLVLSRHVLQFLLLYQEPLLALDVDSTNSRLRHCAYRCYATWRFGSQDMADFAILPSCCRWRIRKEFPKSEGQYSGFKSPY
Procedure: (§1) Transfection was performed using lipofectamine 2000 (Fisher Scientific), and cells were subjected to Geneticin (800 μg/mL) selection for 2–3 weeks. This was followed by single cell cloning by limiting dilution in 96-well plates. Individual clones were selected for further study based on ATP-induced TO-PRO-3 uptake on a BD Cytoflex flow cytometer. Cell lines were maintained in DMEM:F12 media supplemented with 10% fetal bovine serum (PanBiotech), penicillin and streptomycin (Fisher Scientific) and kept in a humidified incubator with 5% CO2. Stable P2X7-expressing cells were kept under Geneticin selection at a concentration of 400 μg/mL. Passaging was performed twice weekly using 0.25% Trypsin-EDTA (Fisher Scientific).
P2X7 responses were measured by monitoring intracellular calcium responses using fura-2AM loaded cells. Cells were plated at 2–2.5 × 10^4 cells/well the day before experiments in 96-well plates (NUNC) coated with 50 μg/mL poly-D-lysine (Merck Millipore). […] Responses were measured using a Flexstation 3 plate reader (Molecular Devices) with dual excitation wavelengths of 340 and 380 nm and single emission wavelength of 510 nm. The sample interval was 3.5 s, and each well was recorded for 180 s. Fura-2 ratios were calculated in Softmax Pro v5.4; zero baseline was applied, and responses were measured as normalized area under the curve (AUC). Dose inhibition curves were plotted using GraphPad Prism v6 nonlinear regression (three parameter fit) and log IC50 values reported.

[2] = target: T2, mouse P2X7 (mP2X7) (Mus musculus, UniProt Q9Z1M0); assay: fura-2 intracellular calcium assay on HEK-293 stable cell line expressing mouse P2X7; assay type: cell-based
T2 construct: expressed in transfected cells
T2 sequence (Q9Z1M0 1-595): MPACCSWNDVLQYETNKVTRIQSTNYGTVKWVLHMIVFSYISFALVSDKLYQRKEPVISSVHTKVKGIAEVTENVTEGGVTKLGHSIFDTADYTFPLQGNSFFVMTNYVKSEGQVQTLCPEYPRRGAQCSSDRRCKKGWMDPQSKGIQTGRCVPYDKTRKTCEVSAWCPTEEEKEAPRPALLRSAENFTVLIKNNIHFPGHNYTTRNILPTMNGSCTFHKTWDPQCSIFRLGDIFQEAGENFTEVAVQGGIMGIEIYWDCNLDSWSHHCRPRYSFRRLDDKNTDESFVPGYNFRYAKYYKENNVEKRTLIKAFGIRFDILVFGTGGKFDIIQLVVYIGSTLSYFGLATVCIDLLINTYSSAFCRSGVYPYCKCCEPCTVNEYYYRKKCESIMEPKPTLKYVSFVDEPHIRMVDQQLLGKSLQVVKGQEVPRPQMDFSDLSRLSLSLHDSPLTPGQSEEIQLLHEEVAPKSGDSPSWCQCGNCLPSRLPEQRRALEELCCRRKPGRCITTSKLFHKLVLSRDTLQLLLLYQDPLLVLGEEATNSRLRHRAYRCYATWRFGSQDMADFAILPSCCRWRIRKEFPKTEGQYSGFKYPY
Procedure: as §1, with “Genetically edited HEK-293 cells lacking P2Y2 receptors were used to generate stable cell lines expressing human P2X7 (hP2X7), mouse P2X7 (mP2X7), rat P2X7 (rP2X7), or mutants of the hP2X7 NAM site (F88A, M105A, and F103A). Transfection” for “Transfection”
P2X7 responses were measured by monitoring intracellular calcium responses using fura-2AM loaded cells. Cells were plated at 2–2.5 × 10^4 cells/well the day before experiments in 96-well plates (NUNC) coated with 50 μg/mL poly-D-lysine (Merck Millipore). A loading buffer containing 2 μM fura-2AM (HelloBio) and 250 μM sulfinpyrazone (Merck Millipore) in a low divalent buffer (145 mM NaCl, 5 mM KCl, 0.2 mM CaCl2, 10 mM HEPES, 13 mM glucose, pH 7.3) was added to cells for 45 min at 37 °C. After loading, the buffer was removed and replaced with calcium-containing extracellular solution (145 mM NaCl, 5 mM KCl, 2 mM CaCl2, 10 mM HEPES, 13 mM glucose, pH 7.3). Responses were measured using a Flexstation 3 plate reader (Molecular Devices) with dual excitation wavelengths of 340 and 380 nm and single emission wavelength of 510 nm. The sample interval was 3.5 s, and each well was recorded for 180 s. Fura-2 ratios were calculated in Softmax Pro v5.4; zero baseline was applied, and responses were measured as normalized area under the curve (AUC). […]

Structure (SMILES): O=C(NCC1(N2CCN(c3ccccc3)CC2)CCOCC1)c1cccnc1Sc1ccccc1 [JNJ-47965567]
- IC50 [1]: 26 nM
- IC50 ([1]; Human P2X7, species comparison (Table 1), log IC50 ± standard error, n = 3, read-out: Log IC50 (converted)): 9.12 nM
- IC50 ([1]; Human P2X7, species comparison (Table 1), mean in brackets, n = 3, read-out: mean IC50): 9 nM
- IC50 ([1]; WT hP2X7, agonist ATP (Table 2), log IC50 ± standard error, n = 3, read-out: Log IC50 (converted)): 11.9 nM
- IC50 ([1]; WT hP2X7, agonist ATP (Table 2), mean in brackets, n = 3, read-out: mean IC50): 11.7 nM
- IC50 ([2]; Mouse P2X7 (Table 1), mean in brackets, n = 3): 125 nM
- difference between hP2X7 and mP2X7 IC50 values ([2]; mP2X7 vs hP2X7): 13 fold
